Target: T1, CCK-A (Cavia porcellus, UniProt Q63931)
T1 construct: Isolated, strip preparations were prepared from gall-bladders removed from male Dunkin-Hartley guinea-pigs; from tissue; host or cells: isolated gall-bladder strips of male Dunkin-Hartley guinea-pigs
T1 sequence (Q63931 1-430): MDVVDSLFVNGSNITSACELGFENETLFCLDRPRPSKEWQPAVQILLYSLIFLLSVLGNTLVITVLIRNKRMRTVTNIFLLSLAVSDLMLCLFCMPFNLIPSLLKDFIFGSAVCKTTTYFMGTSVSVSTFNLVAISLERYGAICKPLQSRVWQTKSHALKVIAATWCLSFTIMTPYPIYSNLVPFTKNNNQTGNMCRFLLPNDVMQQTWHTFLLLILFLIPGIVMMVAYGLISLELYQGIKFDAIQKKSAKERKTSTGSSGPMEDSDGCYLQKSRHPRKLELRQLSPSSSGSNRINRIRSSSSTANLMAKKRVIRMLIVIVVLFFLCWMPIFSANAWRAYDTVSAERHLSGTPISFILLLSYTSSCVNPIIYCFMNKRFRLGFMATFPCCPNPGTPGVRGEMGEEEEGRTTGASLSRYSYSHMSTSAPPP
Assay: CCK-receptor bioassay, isolated guinea-pig gall-bladder strips, CCK-8 as agonist
Type: cell-based, male Dunkin-Hartley guinea-pigs
Conditions: negative logarithm (base 10) of equilibrium dissociation constant (pKB), CCK-8 agonist, test compound incubated 60 minutes; for Kb: read-out: pK8 versus CCK (gallbladder) (converted)
Method: The compounds were assayed using the CCK-receptor bioassay as follows:
Isolated, strip preparations were prepared from gall-bladders removed from male Dunkin-Hartley guinea-pigs (250-500 g body weight) according to the method of La Morte, W. W., et al., J.P.E.T., 217, (3), 638-644 (1981).
The complete gall-bladder is removed and opened along the longitudinal axis. Strips measuring 3 mm in the longitudinal axis and 1 mm in the transverse axis are cut and then tied with cotton to stainless steel wires. The preparation is connected to a GRASS FTO3 isometric transducer under an initial loading tension of 1 g and is immersed in 20 mls of Krebs solution maintained at 37° C. and gassed with 95% O2 /5% CO2. The composition (mM) of the Krebs solution is as follows: Na^+ 143, K^+ 5.9, Ca^2+ 0.5, Mg^2+ 1.2, Cl^- 128, H2 PO4^- 2.2, HCO3^- 24.9, SO4^2- 1.2, dextrose 10. After 30 mins the preparation is washed. Drug addition begins after an initial 90 min stabilisation period. Responses are measured as changes in tension from that immediately prior to any drug addition. Single cumulative agonist concentration-effect curves, using CCK-8 as agonist, are obtained on each preparation in the absence and presence of test compound which has been incubated for 60 minutes. The antagonist activity of the test compound is estimated and expressed as the negative logarithm (base 10) of the equilibrium dissociation constants (pKB) using the modifications of standard competitive analysis described by Black et al., Br. J. Pharmacol.,86,571-579, (1985) and Shankley et al., Br. J. Pharmacol.,94,264-274 (1988).

SMILES | pKB | Kb [nM]
O=C(O)C[C@H](NS(=O)(=O)c1ccc2ccccc2c1)C(=O)NCCc1ccccc1 [Example 1, 2-Naphthalenesulphonyl-L-aspartyl (2-phenethyl)amide] |  | 324
COc1cc2cc(S(=O)(=O)N[C@@H](CC(=O)O)C(=O)NCCc3ccccc3)ccc2c(Cl)c1OC [Example 14, 5-Chloro-6,7-dimethoxynaphthalenesulphonyl-L-aspartyl (2-phenethyl)amide] |  | 617
O=C(O)C[C@H](NS(=O)(=O)c1ccc(Cl)c(Cl)c1)C(=O)NCCc1ccccc1 [Example 9, 3,4-Dichlorobenzenesulphonyl-L-aspartyl (2-phenethyl)amide] |  | 1700
COc1ccc2cc(S(=O)(=O)N[C@@H](CC(=O)O)C(=O)NCCc3ccccc3)ccc2c1Cl [Example 13, 5-Chloro-6-methoxynaphthalenesulphonyl-L-aspartyl (2-phenethyl)amide] | 6.49 ± 0.38 | 
O=C(O)C[C@H](NS(=O)(=O)Cc1ccc2ccccc2c1)C(=O)NCCc1ccccc1 [Example 10, Naphthylmethanesulphonyl-L-aspartyl (2-phenethyl)amide] | 5.40 ± 0.18 | 
COc1ccc2cc(S(=O)(=O)N[C@@H](CC(=O)O)C(=O)NCCc3ccccc3)ccc2c1 [Example 12, 6-Methoxynaphthalenesulphonyl-L-aspartyl (2-phenethyl)amide] |  | 257
O=C(O)C[C@H](NS(=O)(=O)CCc1ccccc1)C(=O)NCCc1ccccc1 [Example 7, 2-phenylethanesulphonyl-L-aspartyl (2-phenethyl)amide] |  | 3470

Second part, the molecule after the results:

pKB | Kb [nM] | SMILES
6.27 ± 0.22 |  | O=C(O)C[C@H](NS(=O)(=O)/C=C/c1ccccc1)C(=O)NCCc1ccccc1 [Example 22, 2-phenethenylsulphonyl-L-aspartyl (2-phenethyl)amide]
 | 724 | O=C(O)CC[C@H](NS(=O)(=O)c1ccc2ccccc2c1)C(=O)NCCc1ccccc1 [Example 16, 2-Naphthalenesulphonyl-L-glutamyl (2-phenethyl)amide]
 | 269 | O=C(O)C[C@H](NS(=O)(=O)c1ccc2ccccc2c1)C(=O)NCCc1ccc(F)cc1 [Example 18, 2-Naphthalenesulphonyl-L-aspartyl (2(4-fluorophenethyl)amide)]
 | 1020 | COc1ccc(CCNC(=O)[C@H](CC(=O)O)NS(=O)(=O)c2ccc3ccccc3c2)cc1 [Example 19, Naphthalenesulphonyl-L-aspartyl (2-(4-methoxyphenethyl)amide)]
 | 105 | O=C(O)C[C@H](NS(=O)(=O)c1ccc2ccccc2c1)C(=O)NCCCc1ccccc1 [Example 23, 2 -Naphthalenesulphonyl-L-aspartyl (3-phenylpropyl)amide]
 | 7240 | O=C(O)C[C@H](NS(=O)(=O)c1ccc2ccccc2c1)C(=O)N1CCc2ccccc2C1 [Example 21, 2-Naphthalenesulphonyl-L-aspartyl (1,2,3,4-tetrahydroisoquinolin)amide]
 | 1200 | O=C(O)C[C@@H](NS(=O)(=O)c1ccc2ccccc2c1)C(=O)NCCc1ccccc1 [Example 15, 2-Naphthalenesulphonyl-D-aspartyl (2-phenethyl)amide]
 | 11200 | NS(=O)(=O)c1ccc(CCNC(=O)[C@H](CC(=O)O)NS(=O)(=O)c2ccc3ccccc3c2)cc1 [Example 20, 2-Naphthalenesulphonyl-L-aspartyl (2-(4-sulphonamidophenethyl)amide)]
